Test results reported in patent US5817692A, “Endoperoxides useful as antiparasitic agents” (priority 1996, dated 1998).
Read-outs that look alike come from different tables or passages of the source.

Key:
[1] = test system: L929 cells; test: cytotoxicity to L929 cells, MTT assay (viability and replication); assay type: cell-based; parameters: Toxicity, Mean: unit not given here; details: L929 cells; for Toxicity, Mean: MTT; for inhibition at 0.1 µM / inhibition at 1 µM / inhibition at 10 µM / inhibition at 50 µM: Mus musculus, read-out: Toxicity, % of control (inhibition)
Method: Toxoplasma gondii is the causative agent of cerebral toxoplasmic encephalitis, an AIDS-related opportunistic infection. The biological activity of the endoperoxide JHU 2886 of the present invention was measured against Toxoplasma gondii cultured in L929 cells.
More specifically, the cytotoxicity of synthetic organic endoperoxide JHU 2886 was tested in L929 cells by measuring the viability and replication of exposed cells. The cytotoxicity of the compound to the cultured cells was measured using the MTT assay (Promega kit), according to the procedure of Carmichael et al. (18). MTT is an abbreviation for [3-(4,5-dimethylthiazol-2-yl)-2,5-dephenyltetrazolium bromide].
This compound is referred to as JHU 2886 in Table 1. In this experiment atovaquone and artemisinin were used as positive controls. Atovaquone is a broad-spectrum anti-infective drug having antimalarial and antitoxoplasmosis activity (19).
^1 The cytotoxicity of each compound for the cultured cells was
measured using the MTT assay (Promega kit) and inhibition of the […]

[2] = test system: Toxoplasma gondii; test: inhibition of intracellular replication of T. gondii in infected L929 cells, uracil incorporation assay; assay type: cell-based; parameters: Activity, Mean: unit not given here; details: for Activity, Mean: uracil incorporation; for inhibition at 0.1 µM / inhibition at 1 µM / inhibition at 10 µM / inhibition at 50 µM: Toxoplasma gondii, L929, read-out: Activity, % of control (inhibition)
Method: Toxoplasma gondii is the causative agent of cerebral toxoplasmic encephalitis, an AIDS-related opportunistic infection. The biological activity of the endoperoxide JHU 2886 of the present invention was measured against Toxoplasma gondii cultured in L929 cells. The inhibitory activity of the synthetic organic endoperoxide was tested by measuring the intracellular replication of T. gondii in infected L929 cells. The inhibition of the intracellular replication of T. gondii was determined using the uracil incorporation assay (20). […] This compound is referred to as JHU 2886 in Table 1. In this experiment atovaquone and artemisinin were used as positive controls. Atovaquone is a broad-spectrum anti-infective drug having antimalarial and antitoxoplasmosis activity (19). | measured using the MTT assay (Promega kit) and inhibition of the | intracellular replication of T. gondii was determined using the uracil | incorporation assay.

O=C1C(O)=C([C@H]2CC[C@H](c3ccc(Cl)cc3)CC2)C(=O)c2ccccc21 [Atovaquone]
Toxicity, Score ([1]; 24 hours, dose 0.1 μM): 1 (≤20%) | Toxicity, Mean ([1]; 24 hours, dose 0.1 μM): 0.095 | Toxicity, Score ([1]; 24 hours, dose 1.0 μM): 1 (≤20%) | Toxicity, Mean ([1]; 24 hours, dose 1.0 μM): 0.093 | Toxicity, Score ([1]; 24 hours, dose 10.0 μM): 1 (≤20%) | Toxicity, Mean ([1]; 24 hours, dose 10.0 μM): 0.092 | Toxicity, Score ([1]; 24 hours, dose 50.0 μM): 2 (>20%-≤40%) | Toxicity, Mean ([1]; 24 hours, dose 50.0 μM): 0.089 | Toxicity, Score ([1]; 48 hours, dose 0.1 μM): 0 | Toxicity, Mean ([1]; 48 hours, dose 0.1 μM): 0.214 | Toxicity, Score ([1]; 48 hours, dose 1.0 μM): 1 (≤20%) | Toxicity, Mean ([1]; 48 hours, dose 1.0 μM): 0.211 | Toxicity, Score ([1]; 48 hours, dose 10.0 μM): 1 (≤20%) | Toxicity, Mean ([1]; 48 hours, dose 10.0 μM): 0.204 | Toxicity, Score ([1]; 48 hours, dose 50.0 μM): 3 (>40%-≤70%) | Toxicity, Mean ([1]; 48 hours, dose 50.0 μM): 0.106 | Toxicity, Score ([1]; 72 hours, dose 0.1 μM): 0 | Toxicity, Mean ([1]; 72 hours, dose 0.1 μM): 0.473 | Toxicity, Score ([1]; 72 hours, dose 1.0 μM): 0 | Toxicity, Mean ([1]; 72 hours, dose 1.0 μM): 0.464 | Toxicity, Score ([1]; 72 hours, dose 10.0 μM): 0 | Toxicity, Mean ([1]; 72 hours, dose 10.0 μM): 0.456 | Toxicity, Score ([1]; 72 hours, dose 50.0 μM): 3 (>40%-≤70%) | Toxicity, Mean ([1]; 72 hours, dose 50.0 μM): 0.161 | inhibition at 0.1 µM ([1]; 24 hours, dose 0.1 μM): 15.6% | inhibition at 1 µM ([1]; 24 hours, dose 1.0 μM): 17.4% | inhibition at 10 µM ([1]; 24 hours, dose 10.0 μM): 18.3% | inhibition at 50 µM ([1]; 24 hours, dose 50.0 μM): 21.2% | inhibition at 0.1 µM ([1]; 48 hours, dose 0.1 μM): 0% | inhibition at 1 µM ([1]; 48 hours, dose 1.0 μM): 1.09% | inhibition at 10 µM ([1]; 48 hours, dose 10.0 μM): 4.53% | inhibition at 50 µM ([1]; 48 hours, dose 50.0 μM): 50.2% | inhibition at 0.1 µM ([1]; 72 hours, dose 0.1 μM): 0% | inhibition at 1 µM ([1]; 72 hours, dose 1.0 μM): 0% | inhibition at 10 µM ([1]; 72 hours, dose 10.0 μM): 0% | inhibition at 50 µM ([1]; 72 hours, dose 50.0 μM): 63.2% | therapeutic index (ratio of activity to toxicity), quotient ([2]; 1 μM, T. gondii activity / L929 toxicity): 5.6 | Activity, Score ([2]; 24 hours, dose 0.1 μM): 4 (>70%-≤90%) | Activity, Mean ([2]; 24 hours, dose 0.1 μM): 3096 | Activity, Score ([2]; 24 hours, dose 1.0 μM): 5 (>90%) | Activity, Mean ([2]; 24 hours, dose 1.0 μM): 693 | Activity, Score ([2]; 24 hours, dose 10.0 μM): 5 (>90%) | Activity, Mean ([2]; 24 hours, dose 10.0 μM): 612 | Activity, Score ([2]; 24 hours, dose 50.0 μM): 5 (>90%) | Activity, Mean ([2]; 24 hours, dose 50.0 μM): 1042 | Activity, Score ([2]; 48 hours, dose 0.1 μM): 3 (>40%-≤70%) | Activity, Mean ([2]; 48 hours, dose 0.1 μM): 6865 | Activity, Score ([2]; 48 hours, dose 1.0 μM): 5 (>90%) | Activity, Mean ([2]; 48 hours, dose 1.0 μM): 729 | Activity, Score ([2]; 48 hours, dose 10.0 μM): 5 (>90%) | Activity, Mean ([2]; 48 hours, dose 10.0 μM): 399 | Activity, Score ([2]; 48 hours, dose 50.0 μM): 5 (>90%) | Activity, Mean ([2]; 48 hours, dose 50.0 μM): 236 | Activity, Score ([2]; 72 hours, dose 0.1 μM): 3 (>40%-≤70%) | Activity, Mean ([2]; 72 hours, dose 0.1 μM): 2940 | Activity, Score ([2]; 72 hours, dose 1.0 μM): 4 (>70%-≤90%) | Activity, Mean ([2]; 72 hours, dose 1.0 μM): 1272 | Activity, Score ([2]; 72 hours, dose 10.0 μM): 5 (>90%) | Activity, Mean ([2]; 72 hours, dose 10.0 μM): 446 | Activity, Score ([2]; 72 hours, dose 50.0 μM): 5 (>90%) | Activity, Mean ([2]; 72 hours, dose 50.0 μM): 230 | inhibition at 0.1 µM ([2]; 24 hours, dose 0.1 μM): 78.4% | inhibition at 1 µM ([2]; 24 hours, dose 1.0 μM): 95.2% | inhibition at 10 µM ([2]; 24 hours, dose 10.0 μM): 95.7% | inhibition at 50 µM ([2]; 24 hours, dose 50.0 μM): 92.7% | inhibition at 0.1 µM ([2]; 48 hours, dose 0.1 μM): 60.1% | inhibition at 1 µM ([2]; 48 hours, dose 1.0 μM): 95.8% | inhibition at 10 µM ([2]; 48 hours, dose 10.0 μM): 97.7% | inhibition at 50 µM ([2]; 48 hours, dose 50.0 μM): 98.6% | inhibition at 10 µM ([2]; 72 hours, dose 10.0 μM): 93.8% | inhibition at 50 µM ([2]; 72 hours, dose 50.0 μM): 96.8%
